These results are taken from US20080293583A1, “Methods for diagnosing mood disorders” (Wyeth, priority 2003, published 2008).

Common to all, as to format: in vivo
In assay [1] the test system is Antioxidant protein 2 (calcium-independent PLA2). As to the kind of experiment: 2-DE proteome analysis of rat hippocampus: Antioxidant protein 2. Particulars: rat hippocampus cytosolic extract, 10 mg/kg i.p. daily 14 days, vs control; gel spot 51. The protocol:
(§1) Animal dosing. Adult male Sprague Dawley rats weighing 230-320 g were housed with ad libitum access to food and water. After 1 week of habituation, rats were administered either an antidepressant or vehicle alone. The following drugs were administered intraperitoneally (i.p.): fluoxetine (10 mg/kg daily), venlafaxine (10 mg/kg daily) or vehicle alone (1 ml/kg normal saline daily) for 14 days (n=3 rats per group).
(§2) Sample preparation and cytosolic protein extraction. The animals were euthanized and hippocampi were rapidly dissected from the whole brain. Samples from each treatment group were pooled and stored at −85° C. Cytosolic extracts were prepared using the universal extraction kit from Sigma (prot-two) as follows: soluble cytoplasmic extraction reagent (S2688) was added to the hippocampal tissue (10 ml/250 mg wet weight). […]
(§3) Two-dimensional gel electrophoresis. […] Molecular masses were determined by running standard protein markers (Genomic Solutions Inc.), covering the range 10-200 kDa as well as internal verification via landmark proteins within the gel. […]
(§4) Protein fixation, silver staining and 2-D gel comparisons. […] Protein spots were outlined (first automatically and then manually) and quantified using the HT analyzer v2.2 software (Genomic Solutions Inc.). The software calculated the relative spot volume of the proteins compared with the total amount of protein in the gel. […]

In assay [2] the test system is 61 S Ribosomal protein L28. As to the kind of experiment: 2-DE proteome analysis of rat hippocampus: Ribosomal protein L28. The note with it: rat hippocampus cytosolic extract, 10 mg/kg i.p. daily 14 days, vs control; gel spot 66. The protocol:
as §1, §2, §3, §4

For assay [3], the system named is Ras-related protein RAB-4A. Briefly: 2-DE proteome analysis of rat hippocampus: RAB-4A. Particulars: rat hippocampus cytosolic extract, 10 mg/kg i.p. daily 14 days, vs control; gel spot 90 (mix). The protocol:
as §1, §2, §3, §4

In assay [4] the test system is Dihydropyrimidinase Related Protein-2 (DRP-2; CRMP-2; TOAD-64). Briefly: 2-DE proteome analysis of rat hippocampus: DRP-2/CRMP-2. The note with it: rat hippocampus cytosolic extract, 10 mg/kg i.p. daily 14 days, vs control; gel spot 1. The protocol:
as §1, §2, §3, §4

Assay [5] deals with Hydroxysteroid sulfotransferase A (Androsterone-sulfating sulfotransferase). Briefly: 2-DE proteome analysis of rat hippocampus: Hydroxysteroid sulfotransferase A. The note with it: rat hippocampus cytosolic extract, 10 mg/kg i.p. daily 14 days, vs control; gel spot 79. The method, then:
as §1, §2, §3, §4

Assay [6] deals with PCTAIRE-3 (Serine/Threonine-Protein Kinase). Briefly: 2-DE proteome analysis of rat hippocampus: PCTAIRE-3. Particulars: rat hippocampus cytosolic extract, 10 mg/kg i.p. daily 14 days, vs control; gel spot 6. The method, then:
as §1, §2, §3, §4

For assay [7], the system named is Myelin Basic Protein S (MBP S). Briefly: 2-DE proteome analysis of rat hippocampus: MBP S. The note with it: rat hippocampus cytosolic extract, 10 mg/kg i.p. daily 14 days, vs control; gel spot 64. The method, then:
as §1, §2, §3, §4

For a further assay, the system named is D-dopachrome tautomerase. Briefly: 2-DE proteome analysis of rat hippocampus: D-dopachrome tautomerase. The note with it: rat hippocampus cytosolic extract, 10 mg/kg i.p. daily 14 days, vs control; gel spot 93. The method, then: as §1, §2, §3, §4

`CNCCC(Oc1ccc(C(F)(F)F)cc1)c1ccccc1` (stereo not shown) [Fluoxetine, fluoxetine]: the “Fold change, Antioxidant protein 2” value in assay [1] is given as 1.6 Fold change. Moreover, the “Fold change, 61 S Ribosomal protein L28” value in assay [2] is listed as 0.7 Fold change. Also, in assay [3], the “Fold change, Ras-related protein RAB-4A” value came to 1.5 Fold change. Also, in assay [4], the “Fold change, Dihydropyrimidinase Related Protein-2 (DRP-2; CRMP-2; TOAD-64)” value came to 2.6 Fold change. In addition, the “Fold change, Hydroxysteroid sulfotransferase A” value in assay [5] is 2 Fold change. Besides, in assay [6], the “Fold change, PCTAIRE-3” value amounted to 1.5 Fold change. Also, in assay [7], the “Fold change, Myelin Basic Protein S (MBP S)” value is 3.1 Fold change. In the assay with D-dopachrome tautomerase, the “Fold change, D-dopachrome tautomerase” value is reported as 2.2 Fold change.
Turning to `COc1ccc(C(CN(C)C)C2(O)CCCCC2)cc1` (stereo not shown) [Venlafaxine, venlafaxine], the “Fold change, Antioxidant protein 2” value in assay [1] is recorded as 1.7 Fold change. In assay [2], the “Fold change, 61 S Ribosomal protein L28” value amounted to 0.6 Fold change. Also, the “Fold change, Ras-related protein RAB-4A” value in assay [3] stood at 1.5 Fold change. Moreover, in assay [4], the “Fold change, Dihydropyrimidinase Related Protein-2 (DRP-2; CRMP-2; TOAD-64)” value turned out to be 4.1 Fold change. Besides, in assay [5], the “Fold change, Hydroxysteroid sulfotransferase A” value is listed as 2 Fold change. Further, in assay [6], the “Fold change, PCTAIRE-3” value came out at 1.5 Fold change. Besides, in assay [7], the “Fold change, Myelin Basic Protein S (MBP S)” value is recorded as 3.7 Fold change. For the same compound, the “Fold change, D-dopachrome tautomerase” value in the assay on D-dopachrome tautomerase stood at 2.3 Fold change.
